# Assay results from publication PMC10817174, “Integrated drug response prediction models pinpoint repurposed drugs with effectiveness against rhabdomyosarcoma” (PLOS ONE, 2024).
# Entries after “also recorded” stand apart in the source; their conditions may differ. Read-outs that look alike come from different tables or passages of the source.
# Columns and labels:
# [1] = system: SJCRH30 (human alveolar rhabdomyosarcoma) cells; assay: MTT cell viability assay in SJCRH30 cells; type: cell-based; conditions: 24 h; for anti-proliferation / anti-cancer activity in SJCRH30 cells: in words; for IC50: SJ-S drugs, SJCRH30 cells, read-out: IC50(μM) RMS
# Text: (§1) The RD (human embryonal rhabdomyosarcoma) and CCD-18Co (human colon fibroblast) cell lines were purchased from the Korean Cell Line Bank (KCLB). SJCRH30 (human alveolar rhabdomyosarcoma) cell line was purchased from the American Type Culture Collection (ATCC). RD and CCD-18Co cells were maintained in Dulbecco’s Modified Eagle’s Medium (DMEM; Gibco) supplemented with 10% fetal bovine serum (FBS; Gibco) and 1% penicillin/streptomycin (P/S; Gibco). SJCRH30 cells were maintained in Roswell Park Memorial Institute medium (RPMI 1640, Gibco) supplemented with 10% FBS and 1% P/S. Cells were grown in a humidified chamber containing 5% CO2 at 37°C. Cell line authentication was performed by short tandem repeat profile using PowerPlex® 18D system (Promega Corporation) and sequencing apparatus Applied Biosystems 3130xl Genetic Analyzer (Applied Biosystem) according to manufacturer’s protocol.
# (§2) SJCRH30, RD, and CCD-18Co cells were seeded at 2 × 10^4 cells/well in 96-well plates. The candidate drugs were treated for 24 h. AZ628, BIX02189, fedratinib, nutlin-3a, VX-11e, SB590885, NSC207895, tubastatin A, CX-5461, navitoclax, GSK1070916 and the FDA-approved drug library were purchased from Selleckchem. GW.44175 was purchased from Cayman chemical. MTT (3-(4,5-Dimethylthiazol-2-yl)-2,5-Diphenyltetrazolium bromide, Sigma) cell viability detection reagent diluted in serum free medium was added to each well and incubated for 2 h at 37°C. The supernatant was removed, and 50 μL DMSO was added to dissolve the precipitate. Absorbance was measured at 570 nm using a Molecular Devices VersaMax microplate reader and SoftMax® Pro 5 software. IC50 was calculated with GraphPad Prism 7 software.
# [2] = system: CCD-18Co (human colon fibroblast) cells; assay: MTT cell viability assay in normal control cells; type: cell-based; conditions: for selective anti-cancer activity against the RMS cell lines: based on the CCD-18Co control results; for IC50(μM) CCD-18Co: normal cell control, 24 h
# Text: as §1, §2
# SJCRH30 cells = assay: Caspase-3/7 activity assay in SJCRH30 cells; type: cell-based, human; conditions: 24 h
# Experimental: (§3) The activity of caspase-3/7 was detected with the CellEvent^TM Caspase-3/7 Green detection kit (Thermo Fisher Scientific, C10423), following the manufacturer’s instructions. SJCRH30 and RD cells were seeded at 2 × 10^4 cells/well in 96-well plates. […] Stained cells were observed under fluorescent microscopy (LEICA, DMI3000 B). Drugs were treated in triplicates and 4 pictures of each well were captured. The percentage of caspase-3/7 positive cells per field of view was quantified using ImageJ software.
# GDSC-RD cell line = conditions: cited from earlier work; for Iorio_RD: Table S2, published drug response ref Iorio et al. (2016)
# GDSC-SJCRH30 cell line = conditions: cited from earlier work; for Iorio_SJCRH30: Table S2, published drug response ref Iorio et al. (2016)
# [3] = system: RD (human embryonal rhabdomyosarcoma) cells; assay: MTT cell viability assay in RD cells; type: cell-based; conditions: 24 h; for anti-proliferation / anti-cancer activity in RD cells: in words
# Text: as §1, §2
# RD cells = assay: Caspase-3/7 activity assay in RD cells; type: cell-based, human; conditions: 24 h
# Experimental: as §3
# Ewing’s sarcoma = system: Ewing’s sarcoma; set-up: method as in PMID 26095524; conditions: Ewing’s sarcoma ref 42; cited from earlier work
# [4] = heavily pre-treated soft-tissue sarcoma patients ref 43; cited from earlier work
# uterine sarcoma = conditions: in vitro and in vivo ref 44; cited from earlier work
compound,measurement,setting,value
O=C(/C=C/c1cccc(S(=O)(=O)Nc2ccccc2)c1)NO [Belinostat],anti-proliferation / anti-cancer activity in SJCRH30 cells,[1],higher anti-cancer activity; also recorded: reduced cells proliferation to a greater degree than the clinical drugs; also recorded: sensitive
same,IC50,"[1]; Homo sapiens, Rhabdomyosarcoma cell",0.146 µM
same,IC50,[1],0.146 µM
same,selective anti-cancer activity against the RMS cell lines,[2],selective anti-cancer activity
same,IC50(μM) CCD-18Co,[2]; MTT,No cytotoxicity
same,caspase-3/7 activation,SJCRH30 cells,increased level of caspase-3/7 activation
same,Iorio_RD,GDSC-RD cell line,R
same,Iorio_SJCRH30,GDSC-SJCRH30 cell line,R
same,GDSC-SJCRH30 drug response,GDSC-SJCRH30 cell line,resistant
CN1CCN(c2ccc([N+](=O)[O-])c3no[n+]([O-])c23)CC1 [NSC207895],anti-proliferation / anti-cancer activity in RD cells,[3],higher anti-cancer activity; also recorded: effectively inhibited cell proliferation compared to vincristine and cyclophosphamide
same,IC50,"[3]; RD-S drugs, RD cells, read-out: IC50(μM) RMS",6.57 µM
same,selective anti-cancer activity against the RMS cell lines,[2],selective anti-cancer activity
same,IC50(μM) CCD-18Co,[2]; MTT,No cytotoxicity
same,caspase-3/7 activation,RD cells,significantly induced the activation of caspase-3/7
same,Iorio_RD,GDSC-RD cell line,S
same,Iorio_SJCRH30,GDSC-SJCRH30 cell line,R
same,apoptosis induction,Ewing’s sarcoma,induces p53-independent apoptosis
O=C(CCCCCCC(=O)Nc1ccccc1)NO [Vorinostat],anti-proliferation / anti-cancer activity in SJCRH30 cells,[1],higher anti-cancer activity; also recorded: reduced cells proliferation to a greater degree than the clinical drugs
same,caspase-3/7 activation,SJCRH30 cells,increased level of caspase-3/7 activation
same,Iorio_SJCRH30,GDSC-SJCRH30 cell line,S
same,patients with long-term disease stabilization,[4],6 of the 40
same,uterine sarcoma growth,uterine sarcoma,inhibited the uterine sarcoma growth
Cc1cnc(Nc2ccc(OCCN3CCCC3)cc2)nc1Nc1cccc(S(=O)(=O)NC(C)(C)C)c1 [fedratinib],anti-proliferation / anti-cancer activity in RD cells,[3],high non-selective anti-proliferation activity; also recorded: high in vitro sensitivity
same,anti-proliferation / anti-cancer activity in SJCRH30 cells,[1],high non-selective anti-proliferation activity; also recorded: high in vitro sensitivity
same,toxicity toward the CCD-18Co control line,"[2]; MTT, in words",toxicity toward the control line; also recorded: highly sensitive
same,Iorio_RD,GDSC-RD cell line,R
same,GDSC-RD drug response,GDSC-RD cell line,resistance
same,Iorio_SJCRH30,GDSC-SJCRH30 cell line,R
